These results are taken from patent publication US5594022A, “Tachykinin antagonists” (Warner-Lambert Company, priority 1994, dated 1997).

As a reminder, the IC50 is the point on the concentration scale where inhibition reaches its midpoint. A higher IC50 goes with lower potency.

The subject of assay [1] is NK1 receptor. As to conditions: literature; cited from earlier work.
Assay [2] addresses T1, NK1 receptor (Cavia porcellus, UniProt P30547).
T1 construct: guinea pig cerebral cortex membranes; from tissue; host or cells: guinea pig cerebral cortex membranes
The assay can be described thus: Antagonism of substance-P methylester in a number of in vitro NK1 preparations. Set-up: species or system guinea pig. The text has this:
Therefore, it could be of use in therapeutic disorders where attenuation of the NK1 receptor response is an appropriate form of intervention.

The target of assay [3] is T2, NK1 receptor (Guinea Pig Ileum) (Cavia porcellus, UniProt P30547).
T2 construct: Ileum; from tissue; host or cells: guinea pig ileum
T2 sequence (P30547 whole entry): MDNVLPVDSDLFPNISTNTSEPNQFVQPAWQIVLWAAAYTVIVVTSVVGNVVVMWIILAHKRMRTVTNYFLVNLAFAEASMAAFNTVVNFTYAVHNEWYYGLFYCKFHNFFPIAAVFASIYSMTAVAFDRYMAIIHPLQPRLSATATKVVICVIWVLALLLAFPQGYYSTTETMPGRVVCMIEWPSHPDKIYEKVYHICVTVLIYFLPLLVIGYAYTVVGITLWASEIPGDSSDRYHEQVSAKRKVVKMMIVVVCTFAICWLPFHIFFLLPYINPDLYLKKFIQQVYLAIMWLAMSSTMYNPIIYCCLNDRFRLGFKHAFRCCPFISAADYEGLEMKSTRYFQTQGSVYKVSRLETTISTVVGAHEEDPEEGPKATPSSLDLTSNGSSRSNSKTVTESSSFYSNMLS
The assay can be described thus: NK1 antagonist activity, guinea pig ileum. As to conditions: read-out: NK1 Antagonist Activity pkB/pA2, Guinea Pig Ileum (converted).

Assay [4] deals with T1, NK1 receptor. Briefly: In vitro NK1 receptor binding ([125I] Bolton Hunter Substance-P, guinea pig cerebral cortex membranes). As to conditions: Binding IC50, In Vitro NK1 Receptor Binding, [125I-BH]Substance-P 0.1 nM. Here is the method: The compounds of the invention were also evaluated in three tachykinin binding assays.
For assay [5], the target named is T3, NK1 receptor (Guinea Pig Trachea) (Cavia porcellus, UniProt P30547).
T3 construct: Trachea; from tissue; host or cells: guinea pig trachea
T3 sequence (P30547 whole entry): as above
The assay can be described thus: NK1 antagonist activity, guinea pig trachea. As to conditions: read-out: NK1 Antagonist Activity pkB/pA2, Guinea Pig Trachea (converted).

Assay [6] concerns the target T1, NK1 receptor. The assay can be described thus: Guinea pig plasma extravasation (antagonism of SPOMe-induced plasma protein extravasation in the bladder). The format is in vivo. As to conditions: guinea pig, iv, read-out: ID50, Guinea Pig Plasma Extravasation.
Another assay relates to NK2 receptors. The settings on record: literature; cited from earlier work.
For another assay, the system named is NK3 receptors. As to conditions: literature; cited from earlier work.

“Also recorded” adds a separate entry of the source.

T1 sequence (P30547 whole entry): as above

With `COc1ccccc1CN[C@H]1C2CCN(CC2)[C@H]1C(c1ccccc1)c1ccccc1` [CP-96,345], the “NK1 receptor affinity or activity, in words” value in the assay on NK1 receptor [1] is “antagonists at the NK1 receptor”.

For the molecule `C[C@H](NC(=O)[C@@](C)(Cc1c[nH]c2ccccc12)NC(=O)OCc1ccccc1)c1ccccc1` [Example 15], the “NK1 receptor antagonism, in words” value on NK1 receptor [2] (listed as Ex. 15) is reported as “antagonist of the NK1 receptor; also recorded: tachykinin NK1 receptor antagonist”. In addition, the values for the Kb (at NK1 receptor [2] (read-out: pKB against substance-P methylester on these tissues (converted)); in assay [3]; in assay [5]) were about 0.01 µM, 0.0158 µM and 0.0398 µM, respectively. In addition, the IC50 on NK1 receptor [4] worked out at 0.036 µM.

On to `C[C@H](NC(=O)[C@@](C)(Cc1c[nH]c2ccccc12)NC(=O)OCc1ccc(F)cc1F)c1ccccc1` [Example 53, (2,4-Difluorophenyl) methyl [R-(R*,S*)]-[1-(1H-indol-3-ylmethyl)-1-methyl-2-oxo-2-[(1-phenylethyl)amino]ethyl]carbamate], for which, on NK1 receptor [6], the ED50 came out at 0.071 mg/kg. The results for the Kb in assay [3] and in assay [5] were 0.00251 µM and 0.00794 µM, respectively. The 50% inhibitory concentration (IC50) at NK1 receptor [4] stood at 0.039 µM.

For the molecule `CN(Cc1ccccc1)C(=O)[C@H](Cc1ccc2ccccc2c1)NC(=O)[C@@H]1C[C@@H](O)CN1C(=O)c1cn(C)c2ccccc12` [FK 888], the “NK1 receptor affinity or activity, in words” value in the assay on NK1 receptor [1] was “high affinity for the NK1 receptor”.

As for `COc1ccccc1CC(=N)N1C[C@@H]2C(=O)CCC(c3ccccc3)(c3ccccc3)[C@@H]2C1` [RP 67580], the “NK1 receptor affinity or activity, in words” value in the assay with NK1 receptor [1] is reported as “antagonists at the NK1 receptor”.

Take `CC(=O)NC1(c2ccccc2)CCN(CC[C@H](CN(C)C(=O)c2ccccc2)c2ccc(Cl)c(Cl)c2)CC1` [SR 48969]: the “NK2 receptor affinity or selectivity, in words” value in the assay with NK2 receptors was “high affinity and selectivity for NK2 receptors”.

Regarding NKA: mammalian tachykinin neuropeptide, in the assay on NK2 receptors, the “NK2 receptor affinity or selectivity, in words” value is listed as “bind preferentially to NK2”.

In the case of NKB: mammalian tachykinin neuropeptide, the “NK3 receptor binding, in words” value in the assay on NK3 receptors is “bind preferentially”.

Take Substance-P: the “NK1 receptor affinity or activity, in words” value with NK1 receptor [1] is “highest affinity for NK1 receptors”.
